Source: US6734206B1, “3-oxa-8-azaprostaglandin analogs as agents for lowering intraocular pressure” (Allergan, Inc., priority 2003, dated 2004)

Legend:
hTP = molecular target: T1, hTP (Homo sapiens, UniProt P21731); assay: Functional data, human TP receptor; type: cell-based; settings: NA = not active
T1 construct: expressed in transfected cells
T1 sequence (P21731 1-343): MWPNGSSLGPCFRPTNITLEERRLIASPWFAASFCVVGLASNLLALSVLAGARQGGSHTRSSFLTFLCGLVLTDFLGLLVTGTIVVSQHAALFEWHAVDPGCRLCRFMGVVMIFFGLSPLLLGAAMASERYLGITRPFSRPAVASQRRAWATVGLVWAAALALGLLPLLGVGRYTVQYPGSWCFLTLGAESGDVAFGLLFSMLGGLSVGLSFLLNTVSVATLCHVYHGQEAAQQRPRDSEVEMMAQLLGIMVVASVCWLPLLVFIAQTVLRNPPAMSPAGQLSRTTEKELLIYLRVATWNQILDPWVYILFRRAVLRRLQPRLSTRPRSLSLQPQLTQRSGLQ
Experimental: (§1) Plasmids encoding the human EP1, EP2, EP3, EP4, FP, TP, IP and DP receptors were prepared by cloning the respective coding sequences into the eukaryotic expression vector pCEP4 (Invitrogen). The pCEP4 vector contains an Epstein Barr virus (EBV) origin of replication, which permits episomal replication in primate cell lines expressing EBV nuclear antigen (EBNA-1). It also contains a hygromycin resistance gene that is used for eukaryotic selection. The cells employed for stable transfection were human embryonic kidney cells (HEK-293) that were transfected with and express the EBNA-1 protein. These HEK-293-EBNA cells (Invitrogen) were grown in medium containing Geneticin (G418) to maintain expression of the EBNA-1 protein. HEK-293 cells were grown in DMEM with 10% fetal bovine serum (FBS), 250 μg ml^−1 G418 (Life Technologies) and 200 μg ml^−1 gentamicin or penicillin/streptomycin.
(§2) For transfection, the cells were grown to 50-60% confluency on 10 cm plates. The plasmid pCEP4 incorporating cDNA inserts for the respective human prostanoid receptor (20 μg) was added to 500 μl of 250 mM CaCl2. HEPES buffered saline×2 (2×HBS, 280 mM NaCl, 20 mM HEPES acid, 1.5 mM Na2HPO4, pH 7.05-7.12) was then added dropwise to a total of 500 μl, with continuous vortexing at room temperature. After 30 min, 9 ml DMEM were added to the mixture. The DNA/DMEM/calcium phosphate mixture was then added to the cells, which had been previously rinsed with 10 ml PBS. The cells were then incubated for 5 hr at 37° C. in humidified 95% air/5% CO2. The calcium phosphate solution was then removed and the cells were treated with 10% glycerol in DMEM for 2 min. The glycerol solution was then replaced by DMEM with 10% FBS. The cells were incubated overnight and the medium was replaced by DMEM/10% FBS containing 250 μg ml^−1 G418 and penicillin/streptomycin. The following day hygromycin B was added to a final concentration of 200 μg ml^−1.
(§3) Ten days after transfection, hygromycin B resistant clones were individually selected and transferred to a separate well on a 24 well plate. At confluence each clone was transferred to one well of a 6 well plate, and then expanded in a 10 cm dish. Cells were maintained under continuous hygromycin selection until use.

hEP3A = molecular target: T2, hEP3A (Homo sapiens, UniProt P43115); assay: Functional data, human EP3A receptor; type: cell-based; settings: NA = not active
T2 construct: expressed in transfected cells
T2 sequence (P43115 1-390): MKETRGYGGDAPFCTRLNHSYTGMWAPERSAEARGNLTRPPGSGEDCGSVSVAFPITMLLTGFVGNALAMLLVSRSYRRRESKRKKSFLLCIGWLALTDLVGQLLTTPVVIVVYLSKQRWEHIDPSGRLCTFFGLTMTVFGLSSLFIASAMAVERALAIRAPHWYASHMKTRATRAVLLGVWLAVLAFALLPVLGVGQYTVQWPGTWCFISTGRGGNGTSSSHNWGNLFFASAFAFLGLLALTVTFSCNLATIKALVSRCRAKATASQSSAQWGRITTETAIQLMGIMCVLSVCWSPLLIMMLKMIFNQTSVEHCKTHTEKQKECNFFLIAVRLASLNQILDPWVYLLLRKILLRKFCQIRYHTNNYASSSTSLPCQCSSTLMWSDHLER
Experimental: as §1
(§4) For transfection, the cells were grown to 50-60% confluency on 10 cm plates. The plasmid pCEP4 incorporating cDNA inserts for the respective human prostanoid receptor (20 μg) was added to 500 μl of 250 mM CaCl2. HEPES buffered saline×2 (2×HBS, 280 mM NaCl, 20 mM HEPES acid, 1.5 mM Na2HPO4, pH 7.05-7.12) was then added dropwise to a total of 500 μl, with continuous vortexing at room temperature. After 30 min, 9 ml DMEM were added to the mixture. […]

normotensive dogs [1] = assay: Intraocular pressure in dogs, applanation pneumatonometry; type: in vivo, dog; settings: topical once daily dosing, 0.1%, at 52 h, normotensive dogs (n=8)
Experimental: (§5) The effects of the compounds of this invention on intraocular pressure may be measured as follows. The compounds are prepared at the desired concentrations in a vehicle comprising 0.1% polysorbate 80 and 10 mM TRIS base. Dogs are treated by administering 25 μl to the ocular surface, the contralateral eye receives vehicle as a control. Intraocular pressure is measured by applanation pneumatonometry. A topical once daily dosing of (4-{(R)-2-[(E)-4-(3-chlorophenyl)-3-hydroxy-but-1-enyl]-5-oxo-pyrrolidin-1-yl}-butoxy)-acetic acid [example 8] […] The maximum ocular surface hyperemia score was 1.5 (1.5 at 26, 50 and 52 h).

hEP4 [2] = molecular target: T3, hEP4 (Homo sapiens, UniProt P35408); assay: Radioligand binding, human EP4 receptor; settings: NA = not active
T3 construct: expressed in transfected cells
T3 sequence (P35408 whole entry): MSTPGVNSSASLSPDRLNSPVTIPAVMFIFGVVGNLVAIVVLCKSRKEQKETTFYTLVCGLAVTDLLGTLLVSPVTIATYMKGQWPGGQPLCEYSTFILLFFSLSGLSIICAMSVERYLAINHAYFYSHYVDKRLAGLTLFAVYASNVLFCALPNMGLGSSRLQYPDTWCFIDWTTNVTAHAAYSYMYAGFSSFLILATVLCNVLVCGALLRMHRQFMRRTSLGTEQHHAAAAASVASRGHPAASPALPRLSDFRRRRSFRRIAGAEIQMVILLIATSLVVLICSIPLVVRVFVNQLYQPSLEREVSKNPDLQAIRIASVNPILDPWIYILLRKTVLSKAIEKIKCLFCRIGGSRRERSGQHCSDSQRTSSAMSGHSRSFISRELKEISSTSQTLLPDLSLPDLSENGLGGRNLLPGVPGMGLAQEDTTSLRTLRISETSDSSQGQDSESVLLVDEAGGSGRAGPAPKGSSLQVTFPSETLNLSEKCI
Experimental: as §1
as §4, with “mixture. The DNA/DMEM/calcium phosphate mixture was then added to the cells, which had been previously rinsed with 10 ml PBS. The cells were then incubated for 5 hr at 37° C. in humidified 95% air/5% CO2.” for “mixture.”
Radioligand binding studies on plasma membrane fractions prepared for cells stably transfected with the cat or human receptor were performed as follows. […] The pellet was then resuspended in TME buffer to provide a final protein concentration of 1 mg/ml, as determined by Bio-Rad assay. […]
The binding of [^3H](N) PGE2 (specific activity 165 Ci/mmol) was determined in duplicate and in at least 3 separate experiments. […] Competition studies were performed using a final concentration of 2.5 or 5 nM [^3H](N) PGE2 and non-specific binding was determined with 10^−5 M unlabelled PGE2.

normotensive dogs [3] = assay: Ocular surface hyperemia in dogs; type: in vivo, dog; settings: topical once daily dosing, 0.1%, 1.5 at 26, 50 and 52 h
Experimental: as §5

hEP4 [4] = molecular target: T3, hEP4; assay: Functional data, human EP4 receptor; type: cell-based; settings: NA = not active
Experimental: as §1, §2, §3

hEP1 = molecular target: T4, hEP1 (Homo sapiens, UniProt P34995); assay: Functional data, human EP1 receptor; type: cell-based; settings: NA = not active
T4 construct: expressed in transfected cells
T4 sequence (P34995 1-402): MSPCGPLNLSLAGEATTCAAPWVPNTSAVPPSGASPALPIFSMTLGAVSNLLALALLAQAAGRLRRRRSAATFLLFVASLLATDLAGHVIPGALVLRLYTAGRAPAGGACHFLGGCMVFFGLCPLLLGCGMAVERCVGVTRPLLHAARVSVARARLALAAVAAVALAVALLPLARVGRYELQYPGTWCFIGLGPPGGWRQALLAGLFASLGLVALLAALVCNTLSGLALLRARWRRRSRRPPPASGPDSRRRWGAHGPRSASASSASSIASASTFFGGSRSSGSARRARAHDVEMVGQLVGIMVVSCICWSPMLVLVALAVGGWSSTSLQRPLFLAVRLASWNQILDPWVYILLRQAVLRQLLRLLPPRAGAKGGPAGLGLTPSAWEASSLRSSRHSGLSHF
Experimental: as §1, §2
Ten days after transfection, hygromycin B resistant clones were individually selected and transferred to a separate well on a 24 well plate. […]

| Structure (SMILES) | EC50 (hTP) [nM] | IC50 (hEP4 [2]) [nM] | EC50 (hEP4 [4]) [nM] | EC50 (hEP1) [nM] | further results |
| --- | --- | --- | --- | --- | --- |
| O=C(O)COCCCCN1C(=O)CC[C@@H]1/C=C/C(=O)Cc1cccc(Cl)c1 [Example 2] | < 10000 |  |  |  | EC50 (hEP3A): > 10000 nM |
| O=C(O)COCCCCN1C(=O)CC[C@@H]1/C=C/[C@H](O)Cc1cccc(Cl)c1 [Example 8, (4-{(R)-2-[(E)-4-(3-Chlorolphenyl)-3-hydroxy-but-1-enyl]-5-oxo-pyrrolidin-1-yl}-butoxy)-acetic Acid] | > 10000 | 30 | 11 |  | maximum IOP decrease from baseline (normotensive dogs [1]): 4.9 mmHg; maximum IOP decrease from baseline (percent) (normotensive dogs [1]): 26.6%; maximum ocular surface hyperemia score (normotensive dogs [3]): 1.5 |
| O=C(O)COCCCCN1C(=O)CC[C@@H]1CC[C@H](O)Cc1cccc(Cl)c1 (stereo in doubt) [Example 6, (4-{(R)-2-[4-(3-Chlorophenyl)-3-hydroxy-butyl]-5-oxo-pyrrolidin-1-yl}-butoxy)-acetic Acid] | > 10000 | 562 | 192 | 3810 |  |
| COC(=O)COCCCCN1C(=O)CCC1CCC(=O)Cc1cccc(Cl)c1 (stereo in doubt) [Example 3, (4-{(R)-2-[4-(3-Chlorophenyl)-3-oxo-butyl]-5-oxo-pyrrolidin-1-yl}-butoxy)-acetic Acid Methyl Ester] | > 10000 |  | > 10000 |  |  |
| COC(=O)COCCCCN1C(=O)CC[C@@H]1/C=C/[C@H](O)Cc1cccc(Cl)c1 [Example 7, (4-{(R)-2-[(E)-4-(3-Chlorophenyl)-3-hydroxy-but-1-enyl]-5-oxo-pyrrolidin-1-yl}-butoxy)-acetic Acid Methyl Ester] |  |  | > 10000 |  |  |
| COC(=O)COCCCCN1C(=O)CC[C@@H]1CC[C@H](O)Cc1cccc(Cl)c1 (stereo in doubt) [Example 5, (4-{(R)-2-[4-(3-Chlorophenyl)-3-hydroxy-butyl]-5-oxo-pyrrolidin-1-yl}-butoxy)-acetic Acid Methyl Ester] |  |  | 1780 | > 10000 |  |
| COC(=O)COCCCCN1C(=O)CC[C@@H]1/C=C/C(=O)Cc1cccc(Cl)c1 [Example 1, (4-{(R)-2-[(E)-4-(3-chlorolphenyl)-3-oxo-but-1-enyl]-5-oxo-pyrrolidin-1-yl}-butoxy)-acetic Acid Methyl Ester] |  |  | 61 | 721 |  |
| O=C(O)COCCCCN1C(=O)CCC1CCC(=O)Cc1cccc(Cl)c1 (stereo in doubt) [Example 4, (4-{(R)-2-[4-(3-Chlorophenyl)-3-oxo-butyl]-5-oxo-pyrrolidin-1-yl}-butoxy)-acetic Acid] | > 10000 | 3100 | 1720 |  |  |
